Calls of active or inactive are those of the source. No cut-off for these calls is given here.
Columns and labels:
[1] = test system: Bacillus anthracis; test: Antibacterial activity against Bacillus anthracis spores assessed as reduction in membrane potential at 1 uM after 10 hrs by flow cytometry; type: functional, organism-based
[2] = test system: Bacillus anthracis; test: Antibacterial activity against Bacillus anthracis spores assessed as reduction in membrane potential at 100 uM after 10 hrs by flow cytometry; type: functional, organism-based
[3] = test system: Bacillus anthracis; test: Antibacterial activity against Bacillus anthracis spores assessed as loss of membrane integrity at 1 uM by flow cytometry relative to control; type: functional, organism-based
[4] = test system: Bacillus anthracis; test: Antibacterial activity against Bacillus anthracis spores assessed as reduction in membrane potential at 0.1 uM after 10 hrs by flow cytometry; type: functional, organism-based
[5] = test system: Bacillus anthracis; test: Antibacterial activity against Bacillus anthracis spores assessed as loss of spore coat by transmission electron microscopy; type: functional, organism-based
[6] = test system: Bacillus anthracis; test: Antibacterial activity against Bacillus anthracis assessed as effect on spore germination initiation after 5 mins by spectroscopy in presence of 0.1 M MOPS nongerminating condition; type: functional, organism-based
[7] = test system: Bacillus anthracis; test: Antibacterial activity against Bacillus anthracis spores assessed as inhibition of growth of replicating vegetative bacteria at 10 uM; type: functional, organism-based
[8] = test system: Bacillus anthracis; test: Antibacterial activity against Bacillus anthracis spores assessed as decrease in spore germination initiation at 10 uM preincubated with germination medium measured after 18 hrs; type: functional, organism-based
[9] = test system: Bacillus anthracis; test: Antibacterial activity against Bacillus anthracis spores assessed as inhibition of growth of replicating vegetative bacteria at 100 uM; type: functional, organism-based
[10] = test system: Bacillus anthracis; test: Antibacterial activity against Bacillus anthracis spores assessed as loss of membrane integrity at 100 uM by flow cytometry relative to control; type: functional, organism-based
[11] = test system: Bacillus anthracis; test: Antibacterial activity against Bacillus anthracis assessed as effect on germination initiation-associated loss in spore heat resistance after 5 mins by spectroscopy; type: functional
[12] = test system: Bacillus anthracis; test: Antibacterial activity against Bacillus anthracis spores assessed as inhibition of growth of replicating vegetative bacteria at 1 uM; type: functional, organism-based
[13] = test system: Bacillus anthracis; test: Antibacterial activity against Bacillus anthracis spores assessed as loss of membrane integrity at 0.1 uM by flow cytometry relative to control; type: functional, organism-based
[14] = test system: Bacillus anthracis; test: Antibacterial activity against Bacillus anthracis spores assessed as reduction in membrane potential at 1 uM after 5 hrs by flow cytometry; type: functional, organism-based
[15] = test system: Bacillus anthracis; test: Antibacterial activity against Bacillus anthracis spores assessed as reduction in membrane potential at 10 uM after 5 hrs by flow cytometry; type: functional, organism-based
[16] = test system: Bacillus anthracis; test: Antibacterial activity against Bacillus anthracis spores assessed as reduction in membrane potential at 100 uM after 5 hrs by flow cytometry; type: functional, organism-based
[17] = test system: Bacillus anthracis; test: Antibacterial activity against Bacillus anthracis assessed as effect on hydration of spore structure-associated loss in refractility after 10 min by spectroscopy; type: functional
[18] = test system: Bacillus anthracis; test: Antibacterial activity against Bacillus anthracis spores assessed as inhibition of spore germination at 10 uM preincubated for 5 mins with germinating medium measured after 18 hrs; type: functional, organism-based
[19] = test system: Bacillus anthracis; test: Antibacterial activity against Bacillus anthracis spores assessed as loss of membrane integrity at 10 uM by flow cytometry relative to control; type: functional, organism-based
[20] = test system: Bacillus anthracis; test: Antibacterial activity against Bacillus anthracis spores assessed as loss of spore cortex by transmission electron microscopy; type: functional, organism-based
[21] = test system: Bacillus anthracis; test: Antibacterial activity against Bacillus anthracis spores assessed as loss of exosporium by transmission electron microscopy; type: functional, organism-based
[22] = test system: Bacillus anthracis; test: Antibacterial activity against Bacillus anthracis spores assessed as reduction in membrane potential at 0.1 uM after 5 hrs by flow cytometry; type: functional, organism-based
[23] = test system: Bacillus anthracis; test: Antibacterial activity against Bacillus anthracis spores assessed as inhibition of growth of replicating vegetative bacteria at 0.1 uM after 50 minutes; type: functional, organism-based
[24] = test system: Bacillus anthracis; test: Antibacterial activity against Bacillus anthracis spores assessed as reduction in membrane potential at 10 uM after 10 hrs by flow cytometry; type: functional, organism-based
[25] = test system: Bacillus anthracis; test: Antibacterial activity against Bacillus anthracis spores assessed as reduction in membrane potential at 1 uM; type: functional, organism-based
[26] = test system: Bacillus anthracis; test: Antibacterial activity against Bacillus anthracis spores assessed as reduction in membrane potential at 10 uM; type: functional, organism-based
[27] = test system: Bacillus anthracis; test: Antibacterial activity against Bacillus anthracis spores assessed as loss of membrane integrity at 0.01 uM by flow cytometry relative to control; type: functional, organism-based
[28] = test system: Bacillus anthracis; test: Antibacterial activity against Bacillus anthracis spores assessed as inhibition of growth of replicating vegetative bacteria at 1 uM after 5 hrs; type: functional, organism-based
[29] = test system: Bacillus anthracis; test: Antibacterial activity against Bacillus anthracis spores assessed as reduction in membrane potential at 0.01 uM; type: functional, organism-based
[30] = test system: Bacillus anthracis; test: Antibacterial activity against Bacillus anthracis spores assessed as reduction in membrane potential at 0.1 uM; type: functional, organism-based

## C=C(NC(=O)[C@@H](NC(=O)[C@H](Cc1cnc[nH]1)NC(=O)[C@@H](NC(=O)[C@H](CO)NC(=O)[C@@H]1CS[C@@H](C)[C@H]2NC(=O)C(=C)NC(=O)[C@H](NC(=O)[C@H](CCCCN)NC(=O)[C@H](CCSC)NC(=O)[C@H](CC(N)=O)NC(=O)[C@@H]3CS[C@@H](C)[C@@H](NC(=O)[C@H](CCCNN)NC(=O)[C@@H]4CS[C@@H](C)[C@@H](NC(=O)[C@@H]5CSC[C@@H](NC(=O)/C(=C\C)NC(=O)[C@@H](N)[C@@H](C)CC)C(=O)N[C@@H]([C@@H](C)CC)C(=O)NC(=C)C(=O)N[C@@H]([C@@H](C)CC)C(=O)N5)C(=O)N5CCC[C@H]5C(=O)NCC(=O)N4)C(=O)NCC(=O)N[C@@H](C)C(=O)N[C@@H]([C@@H](C)CC)C(=O)N[C@@H](CCSC)C(=O)NCC(=O)N3)[C@H](C)SC[C@H](NC2=O)C(=O)N[C@H](Cc2cnc[nH]2)C(=O)N1)[C@@H](C)CC)C(C)C)C(=O)N[C@@H](CCCCN)C(=O)O [NISIN]
[1]
  Activity: Active
[2]
  Activity: Active
[3]
  Activity: Active
[4]
  inhibition: inactive
[5]
  Activity: inactive
[6]
  Activity: inactive
[7]
  growth inhibition (GI): Active
[8]
  inhibition: Active
[9]
  growth inhibition (GI): Active
[10]
  Activity: Active
[11]
  Activity: >80%
[12]
  growth inhibition (GI): Active
[13]
  Activity: Active
[14]
  Activity: Active
[15]
  Activity: Active
[16]
  Activity: Active
[17]
  Activity: >65%
[18]
  inhibition: Active
[19]
  Activity: Active
[20]
  Activity: inactive
[21]
  Activity: inactive
[22]
  inhibition: inactive
[23]
  growth inhibition (GI): Active
[24]
  Activity: Active

## O=C(O)c1cn(C2CC2)c2cc(N3CCNCC3)c(F)cc2c1=O
[3]
  Activity: Active
[25]
  Activity: inactive
[13]
  Activity: Active
[26]
  Activity: inactive
[19]
  Activity: Active
[27]
  Activity: Active
[28]
  inhibition: inactive
[29]
  Activity: inactive
[30]
  Activity: inactive

— ChEMBL document CHEMBL1629561, “Inhibition of Bacillus anthracis spore outgrowth by nisin” (Antimicrob Agents Chemother, 2008)
